These compounds were tested against T1, human vasopressin V2 receptor subtype (Homo sapiens, UniProt P30518) (assay: Vasopressin binding in CHO cell membranes expressing human vasopressin V2 subtype receptors ([3H]arginine vasopressin radioligand binding)). Details: 100 nM.
T1 construct: host or cells: CHO cells, stably transfected (pZeoSV vector)
Source text: Chinese Hamster Ovary (CHO) cells stably transfected with the human V2 subtype receptors were obtained from M. Thibonnier, Case Western Reserve University School of Medicine, Cleveland, Ohio.
CHO cells transfected with the human vasopressin V2 subtype receptors obtained from M. Thibonnier (pZeoSV vector) are allowed to grow to confluency (approx. >90%) in T-150 flasks under sterile conditions, in a cell culture medium consisting of F-12 Nutrient Mixture (HAM) with L-glutamine (Gibco Cat. #11765-054) containing 15 mM HEPES (Gibco Cat. #15630-080), 1% antibiotic/antimycotic (add 5 mL 100×, Gibco Cat. #15240-062 per 500 mL F-12), 250 μg/mL Zeocin (add 1.25 mL of 100 mg/mL Invitrogen R-250-01 per 500 mL F-12) and 10% Fetal Bovine Serum (Qualified, heat inactivated, Gibco Cat. #16140-063). The medium is removed by aspiration and the cells washed with 10 mL of Hank's Balanced Salt solution (Gibco Cat. #14175-095). The salt solution is removed by aspiration and the cells trypsinized with 5 mL of trypsin-EDTA (0.05% trypsin, 0.53 mM EDTA-4Na, Gibco Cat. #25300-070) for 1 min. The trypsin is removed by aspiration and the cells dislodged by tapping. Cell Culture medium (e.g. 30 mL for 1:30 split) is immediately added and mixed well to inactivate trypsin. 1 mL of detached cells is added to new culture flasks containing fresh Cell Culture medium (e.g. into 25 mL per T-150 flask), and mixed gently. The cells are incubated at 37° C. in 5% CO2. The medium is changed at 3 to 4 day interval (or as appropriate). The cells grow to confluency (approx. >75%-95%) within 7-8 days. All steps are done under sterile conditions.
The cells are washed twice gently with Hank's Balanced Salt solution (e.g. use 10 mL per T-150 flask). The excess solution is removed and the cells bathed for 15-30 min. in an enzyme-free Cell Dissociation Buffer (e.g. use 8 mL Hank's Based, Gibco Cat. #13150-016 per T-150 flask) until cells are loosened. The contents are transferred to centrifuge tubes (50 mL) kept in an ice bath. All subsequent steps are done at 4° C. The tubes are centrifuged at 300×g for 15 min (1380 rpm on SORVAL, Model RT6000D, using the rotor for 50 mL tubes). The supernatant is discarded and the cells suspended in homogeneizing buffer(10 mM Tris-HCl containing 0.25 M sucrose and 1 mM EDTA, pH 7.4) ensuring that the volume of the buffer is about ten times the volume of the cell pellet. The cells are pooled into a centrifuge tube (50 mL) and homogenized with Polytron at setting 6 for 10 sec. The homogenate is transferred into a Potter-Elvjehm homogeneizer and homogenized with 3 strokes. The homogenate is centrifuged at 1500×g for 60 min at 4° C. (3100 rpm using SORVAL, model RT6000D, using the rotor for 50 mL tubes). The pellet is discarded. The supernatant is centrifuged at 100,000×g for 60 min. at 4° C. (Beckman L8-80M ultracentrifuge; spin at 37,500 rpm with rotor type 70 Ti for 50 mL tubes; 38,000 rpm with type 80 Ti for 15 mL tubes; or 35,800 rpm with rotor type 45Ti). The supernantant is discarded and the pellet suspended in 3 to 4 mL of Tris buffer (50 mM TRIS-HCl, pH 7.4). The protein content is estimated by the Bradford or Lowry method. The volume of the membrane suspension is adjusted with the membrane buffer (50 mM Tris-HCl containing 0.1% BSA and 0.1 mM PMSF) to give 3.0 mg/mL (or as appropriate) of protein. The membranes are aliquoted and stored at −70° C.
In wells of a 96-well format microtiter plate, is added 90, 110 or 130 μL (to make up a final volume of 200 μL) of assay buffer containing 50 mM of Tris-HCl (pH 7.4), […], 1 mg % aprotinin, 1 mg % leupeptin, 2 mg % 1,10-phenanthroline, 10 mg % trypsin inhibitor, and 0.1 mM PMSF. The inhibitors are added on the day of the experiment. The components are mixed at room temperature, and then kept in ice bath following adjustment of the pH to 7.4. […]

V2 % inhibition @ 100 nM [%] | Compound
13 | Cc1cc(C(=O)N2Cc3ccc(C(=O)N4CCN(CCN(C)C)CC4)n3Cc3ccccc32)ccc1C1=CCCCC1 [Example 22, {10-[4-(1-Cyclohex-1-en-1-yl)-3-methylbenzoyl]-10,11-dihydro-5H-pyrrolo[2,1-c][1,4]benzodiazepin-3-yl}{4-[2-(dimethylamino)ethyl]-1-piperazinyl}methanone]
18 | Cc1cc(C(=O)N2Cc3ccc(C(=O)N4CCN(CCN5CCOCC5)CC4)n3Cc3ccccc32)ccc1C1=CCCCC1 [Example 23, {10-[4-(1-Cyclohex-1-en-1-yl)-3-methylbenzoyl]-10,11-dihydro-5H-pyrrolo[2,1-c][1,4]benzodiazepin-3-yl}{4-[2-(4-morpholinyl)ethyl]-1-piperazinyl}methanone]
12 | C=CCN1CCN(C(=O)c2ccc3n2Cc2ccccc2N(C(=O)c2ccc(C4=CCCCC4)c(C)c2)C3)CC1 [Example 24, (4-Allyl-1-piperazinyl){10-[4-(1-cyclohex-1-en-1-yl)-3-methylbenzoyl]-10,11-dihydro-5H-pyrrolo[2,1-c][1,4]benzodiazepin-3-yl}methanone]
10 | Cc1cc(C(=O)N2Cc3ccc(C(=O)N4CCN(C(C)C)CC4)n3Cc3ccccc32)ccc1C1=CCCCC1 [Example 25, {10-[4-(1-Cyclohex-1-en-1-yl)-3-methylbenzoyl]-1 0,11-dihydro-5H-pyrrolo[2,1-c][1,4]benzodiazepin-3-yl}(4-isopropyl-1-piperazinyl)methanone]
9 | Cc1cc(C(=O)N2Cc3ccc(C(=O)N4CCC[C@H]4CN4CCCC4)n3Cc3ccccc32)ccc1C1=CCCCC1 [Example 26, {10-[4-(1-Cyclohex-1-en-1-yl)-3-methylbenzoyl]-10,11-dihydro-5H-pyrrolo[2,1-c][1,4]benzodiazepin-3-yl}[(2S)-2-(1-pyrrolidinylmethyl)pyrrolidinyl]methanone]
10 | Cc1cc(C(=O)N2Cc3ccc(C(=O)N4CC[C@@H](N(C)C)C4)n3Cc3ccccc32)ccc1C1=CCCCC1 [Example 27, {10-[4-(1-Cyclohex-1-en-1-yl)-3-methylbenzoyl]-10,11-dihydro-5H-pyrrolo[2,1-c][1,4]benzodiazepin-3-yl}[(3R)-3-(dimethylamino)pyrrolidinyl]methanone]

Same assay, conditions: value in parentheses

IC50 [nM] | Compound
> 1000 | {10-[4-(1-Cyclohexen-1-yl)-3-methylbenzoyl]-10,11-dihydro-5H-pyrrolo[2,1-c][1,4]benzodiazepin-3-yl}(4-methyl-piperazin-1-yl)methanone [Example 12]

Reference: patent publication US7326700B2, “Cyclohexenyl phenyl carboxamides tocolytic oxytocin receptor antagonists” (Wyeth, priority 2001, dated 2008)
